Measured values reported in US20250388605A1, “HETEROBIFUNCTIONAL COMPOUNDS AND METHODS OF TREATING DISEASE” (Halda Therapeutics OpCo, Inc., priority 2022, published 2025).

target: T1, BRD4-BD1 (Homo sapiens, UniProt O60885); experiment: Binding affinity to BRD4-BD1 (bromoKdELECT assay); details: 11-point 3-fold dilution series
T1 construct: made in house; host or cells: T7 phage grown in an E. coli host derived from the BL21 strain
Method: Compounds were tested using a bromoKdELECT assay. T7 phage strains displaying bromodomains were grown in parallel in 24-well blocks in an E. coli host derived from the BL21 strain. E. coli were grown to log-phase and infected with T7 phage from a frozen stock (multiplicity of infection=0.4) and incubated with shaking at 32° C. until lysis (90-150 minutes). The lysates were centrifuged (5,000×g) and filtered ([…]) to remove cell debris. Streptavidin-coated magnetic beads were treated with biotinylated small molecule or acetylated peptide ligands for 30 minutes at room temperature to generate affinity resins for bromodomain assays. The liganded beads were blocked with excess biotin and washed with blocking buffer (SeaBlock (Pierce), 1% BSA, 0.05% Tween 20, 1 mM DTT) to remove unbound ligand and to reduce nonspecific phage binding. Binding reactions were assembled by combining bromodomains, liganded affinity beads, and test compounds in 1× binding buffer (17% SeaBlock, 0.33×PBS, 0.04% Tween 20, 0.02% BSA, 0.004% Sodium azide, 7.4 mM DTT). Test compounds were prepared as 1000× stocks in 100% DMSO. Kds were determined using an 11-point 3-fold compound dilution series with one DMSO control point. All compounds for Kd measurements are distributed by acoustic transfer (non-contact dispensing) in 100% DMSO. The compounds were then diluted directly into the assays such that the final concentration of DMSO was 0.09%. All reactions performed in polypropylene 384-well plates. Each was a final volume of 0.02 ml. The assay plates were incubated at room temperature with shaking for 1 hour and the affinity beads were washed with wash buffer (1×PBS, 0.05% Tween 20). The beads were then resuspended in elution buffer (1×PBS, 0.05% Tween […] non-biotinylated affinity ligand) and incubated at room temperature with shaking for 30 minutes. The bromodomain concentration in the eluates was measured by qPCR.

First: CCS(=O)(=O)Nc1ccc(Oc2cccc(OCCN(C)c3ncc(C(=O)N[C@H]4C(C)(C)[C@H](Oc5ccc(C#N)c(Cl)c5)C4(C)C)cn3)c2)c(-c2cn(C)c(=O)c3[nH]ccc23)c1 [Compound I-1, N-((1r, 3r)-3-(3-chloro-4-cyanophenoxy)-2,2,4,4-tetramethylcyclobutyl)-2-((2-(3-(4-(ethylsulfonamido)-2-(6-methyl-7-oxo-6,7-dihydro-1H-pyrrolo[2,3-c]pyridin-4-yl)phenoxy)phenoxy)ethyl)(methyl)amino)pyrimidine-5-carboxamide]
Second: CCS(=O)(=O)Nc1ccc(Oc2cccc(OCCOCCOCCOCCOCCN(C)c3ncc(C(=O)N[C@H]4C(C)(C)[C@H](Oc5ccc(C#N)c(Cl)c5)C4(C)C)cn3)c2)c(-c2cn(C)c(=O)c3[nH]ccc23)c1 [Compound I-3]
The Kd of the first is higher: 0.05 to 0.5 µM for the first, under 0.05 µM for the second.

Compared with `CCS(=O)(=O)Nc1ccc(Oc2cccc(OCCOC3CCN(c4ncc(C(=O)N[C@H]5C(C)(C)[C@H](Oc6ccc(C#N)c(Cl)c6)C5(C)C)cn4)CC3)c2)c(-c2cn(C)c(=O)c3[nH]ccc23)c1` [Compound I-6], `CCS(=O)(=O)Nc1ccc(Oc2cccc(OCCOCCOC3CCN(c4ncc(C(=O)N[C@H]5C(C)(C)[C@H](Oc6ccc(C#N)c(Cl)c6)C5(C)C)cn4)CC3)c2)c(-c2cn(C)c(=O)c3[nH]ccc23)c1` [Compound I-13] is lower in Kd: over 2.5 µM for the first, 0.5 to 2.5 µM for the second. The second binds more tightly here.

First: CCS(=O)(=O)Nc1ccc(Oc2cccc(OCCOCCOCCOC3CCN(c4ncc(C(=O)N[C@H]5C(C)(C)[C@H](Oc6ccc(C#N)c(Cl)c6)C5(C)C)cn4)CC3)c2)c(-c2cn(C)c(=O)c3[nH]ccc23)c1 [Compound I-7]
Second: CCS(=O)(=O)Nc1ccc(Oc2cccc(OCCOCCOCCOCCOCCOC3CCN(c4ncc(C(=O)N[C@H]5C(C)(C)[C@H](Oc6ccc(C#N)c(Cl)c6)C5(C)C)cn4)CC3)c2)c(-c2cn(C)c(=O)c3[nH]ccc23)c1 [Compound I-8]
The Kd of the first is higher: 0.5 to 2.5 µM for the first, 0.05 to 0.5 µM for the second. The second binds more tightly here.

First: CCS(=O)(=O)Nc1ccc(Oc2cccc(OCCOC3CCN(c4ccc(C(=O)N[C@H]5C(C)(C)[C@H](Oc6ccc(C#N)c(Cl)c6)C5(C)C)nn4)CC3)c2)c(-c2cn(C)c(=O)c3[nH]ccc23)c1 [Compound I-11]
Second: CCS(=O)(=O)Nc1ccc(Oc2cccc(OCCOC3CCN(c4ncc(C(=O)N[C@H]5C(C)(C)[C@H](Oc6ccc(C#N)c(Cl)c6)C5(C)C)cn4)CC3)n2)c(-c2cn(C)c(=O)c3[nH]ccc23)c1 [Compound I-47, N-((1r, 3r)-3-(3-chloro-4-cyanophenoxy)-2,2,4,4-tetra-methylcyclobutyl)-2-(4-(2-((6-(4-(ethylsulfonamido)-2-(6-methyl-7-oxo-6,7-dihydro-1H-pyrrolo[2,3-c]pyridin-4-yl)phenoxy)pyridin-2-yl)oxy)ethoxy)piperidin-1-yl)pyrimidine-5-carboxamide]
The Kd of the first is lower: 0.05 to 0.5 µM for the first, over 2.5 µM for the second. The first binds more tightly here.

First: CCS(=O)(=O)Nc1ccc(Oc2cccc(N(C)C3CN(CC4CCN(c5ncc(C(=O)NC6C(C)(C)C(Oc7ccc(C#N)c(Cl)c7)C6(C)C)cn5)CC4)C3)c2)c(-c2cn(C)c(=O)c3[nH]ccc23)c1 (centres unmarked) [Compound I-39]
Second: CCS(=O)(=O)c1ccc(Oc2cccc(OCCOC3CCN(c4ccc(C(=O)N[C@H]5C(C)(C)[C@H](Oc6ccc(C#N)c(Cl)c6)C5(C)C)cn4)CC3)c2F)c(-c2cn(C)c(=O)c3[nH]ccc23)c1 [Compound I-185]
The Kd of the first is lower: under 0.05 µM for the first, 0.05 to 0.5 µM for the second. The first binds more tightly here.

tested on: T47D cells; experiment: Cellular Growth Inhibition Assay for T47D Cells (CellTiter-Glo); assay type: cell-based, human; details: Homo sapiens, 72 hours
In short: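 GI50 values derive from four-parameter regression of CellTiter-Glo 2.0 luminescence, using zero luminescence as baseline. Human breast cancer T47D cells (3000/well; DMEM, 10% FBS, 0.2 units/mL insulin) were exposed for 72 h to compound dilutions at 0.5% DMSO, with dosing starting 24 h after seeding.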

`CCS(=O)(=O)Nc1ccc(Oc2cccc(OCCOC3CCN(c4ncc(C(=O)N[C@H]5C(C)(C)[C@H](Oc6ccc(C#N)c(Cl)c6)C5(C)C)cn4)CC3)c2)c(-c2cn(C)c(=O)c3[nH]ccc23)c1` [Compound I-6] and `CCS(=O)(=O)Nc1ccc(Oc2cccc(OCCOCCOCCOC3CCN(c4ncc(C(=O)N[C@H]5C(C)(C)[C@H](Oc6ccc(C#N)c(Cl)c6)C5(C)C)cn4)CC3)c2)c(-c2cn(C)c(=O)c3[nH]ccc23)c1` [Compound I-7] cannot be ordered by GI50: under 0.5 µM for the first, under 0.5 µM for the second.

`Cn1cc(-c2cc(C(C)(C)O)ccc2Oc2ccc(CCCC3CC4(C3)CN(c3ncc(C(=O)N[C@H]5C(C)(C)[C@H](Oc6ccc(C#N)c(Cl)c6)C5(C)C)cn3)C4)cc2)c2cc[nH]c2c1=O` [Compound I-268] and `Cn1cc(-c2cc(C(C)(C)O)ccc2Oc2ccc(N3CC(CC4CN(c5ncc(C(=O)N[C@H]6C(C)(C)[C@H](Oc7ccc(C#N)c(Cl)c7)C6(C)C)cn5)C4)C3)cc2)c2cc[nH]c2c1=O` [Compound I-280] cannot be ordered by GI50: under 0.5 µM for the first, under 0.5 µM for the second.
